Among the data in EP2064211B1, “IMIDAZO[1,2-A]PYRIDINE HYDROXYMATE COMPOUNDS THAT ARE INHIBITORS OF HISTONE DEACETYLASE” (MEI Pharma, Inc., priority 2006, dated 2008) are IC50 values, retold here.

One experiment has as its target T1, HDAC1 enzyme (Homo sapiens, UniProt Q13547).
T1 construct: Amplification of human HDAC1 coding region from this cDNA library was cloned separately into the baculovirus expression pDEST20 vector; made in house; host or cells: SF9 insect cells (baculovirus, pDEST20 vector)
In words: In vitro HDAC assay for determination of IC50 values (BIOMOL fluorescent-based HDAC activity assay). It is filed as biochemical. The conditions noted are these: recombinant GST-HDAC1, 500 uM Flur de lys substrate, room temperature 2 h; read-out: IC50 (HDAC 1). On the procedure: Human cDNA library was prepared using cultured SW620 cells. Amplification of human HDAC1 coding region from this cDNA library was cloned separately into the baculovirus expression pDEST20 vector (GATEWAY Cloning Technology, Invitrogen Pte Ltd). The pDEST20-HDAC1 construct was confirmed by DNA sequencing. Recombinant baculovirus was prepared using the Bac-To-Bac method following the manufacturer's instruction (Invitrogen Pte Ltd).
Expression of GST-HDAC1 was done by infecting SF9 cells (Invitrogen Pte Ltd) with pDEST20-HDAC1 baculovirus at MOI=1 for 48 h. Soluble cell lysate was incubated with pre-equilibrated Glutathione Sepharose 4B beads (Amersham) at 4°C for 2 h. The beads were washed with PBS buffer for 3 times. The GST-HDAC1 protein was eluted by elution buffer containing 50 mM Tris, pH8.0, 150mM NaCl, 1% Triton X-100 and 10mM or 20mM reduced Glutathione. The purified GST-HDAC1 protein was dialyzed with HDAC storage buffer containing 10mM Tris, pH7.5, 100mM NaCl and 3mM MgCl2. 20% Glycerol was added to purified GST-HDAC1 protein before storage at -80°C.
The assay has been carried out in 96 well format and the BIOMOL fluorescent-based HDAC activity assay has been applied. The reaction composed of assay buffer, containing 25 mM Tris pH 7.5, 137 mM NaCl, 2.7 mM KCl, 1 mM MgCl2, 1 mg/ml BSA, tested compounds, an appropriate concentration of HDAC1 enzyme, 500 uM Flur de lys generic substrate for HDAC1 enzyme and subsequently was incubated at room temperature for 2 h. Flur de lys Developer was added and the reaction was incubated for 10 min. Briefly, deacetylation of the substrate sensitizes it to the developer, which then generates a fluorophore. The fluorophore is excited with 360 nm light and the emitted light (460 nm) is detected on a fluorometric plate reader (Tecan Ultra Microplate detection system, Tecan Group Ltd.).
The analytical software, Prism 4.0 (GraphPad Software Inc) has been used to generate IC50 from a series of data. IC50 is defined as the concentration of compound required for 50% inhibition of HDAC enzyme activity.

The test system of another experiment is Colo205 cells. In words: Cell-based proliferation assay for determination of GI50 values (CyQUANT). Also on record: species or system Human. The conditions noted are these: Homo sapiens, COLO 205, compound treatment 96 h, concentration for 50% inhibition of cell growth, read-out: Gl50 (Colo205). Here is the method: Human cancer cell lines (e.g. Colo205) were obtained from ATCC. Colo205 cells were cultivated in RPMI 1640 containing 2 mM L-Glutamine, 5% FBS, 1.0 mM Na Pyruvate. Colo205 cells were seeded in 96-wells plate at 5000 cells per well. The plates were incubated at 37°C, 5% CO2, for 24 h. Cells were treated with compounds at various concentrations for 96 h. Cell growth was then monitored using CyQUANT® cell proliferation assay (Invitrogen Pte Ltd). Dose response curves were plotted to determine Gl50 values for the compounds using XL-fit (ID Business Solution, Emeryville, CA). Gl50 is defined as the concentration of compound required for 50% inhibition of cell growth.

T1 sequence (Q13547 whole entry): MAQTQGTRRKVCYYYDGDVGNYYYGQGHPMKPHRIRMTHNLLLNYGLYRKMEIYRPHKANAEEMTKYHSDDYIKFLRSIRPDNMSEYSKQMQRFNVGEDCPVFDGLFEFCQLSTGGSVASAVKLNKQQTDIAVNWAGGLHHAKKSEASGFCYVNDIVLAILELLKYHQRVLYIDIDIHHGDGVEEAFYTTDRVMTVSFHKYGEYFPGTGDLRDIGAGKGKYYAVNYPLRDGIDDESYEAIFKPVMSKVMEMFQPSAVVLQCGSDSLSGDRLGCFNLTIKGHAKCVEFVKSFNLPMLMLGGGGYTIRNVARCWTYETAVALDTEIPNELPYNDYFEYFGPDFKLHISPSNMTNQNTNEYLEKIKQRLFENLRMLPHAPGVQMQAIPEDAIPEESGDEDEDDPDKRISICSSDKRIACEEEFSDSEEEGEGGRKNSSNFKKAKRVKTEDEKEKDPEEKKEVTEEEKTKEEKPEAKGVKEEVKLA

As to `CCC(CC)CN(CC)Cc1c(C(C)(C)C)nc2cc(C=CC(=O)NO)ccn12` [Compound 24, 3-(2-tert-Butyl-3-{[ethyl-(2-ethyl-butyl)-amino]-methyl}-imidazo[1,2-a]pyridin-7-yl)-N-hydroxy-acrylamide], the IC50 on HDAC1 enzyme came to 190 nM; in the experiment on Colo205 cells, 970 nM.

Regarding `CCCCCCCN(CC)Cc1c(C(C)(C)C)nc2cc(/C=C/C(=O)NO)ccn12` [Compound 25], the results for the IC50 at HDAC1 enzyme and in the experiment on Colo205 cells were 540 nM and 2700 nM, respectively.

As for `CCN(CCCSC)Cc1c(C(C)(C)C)nc2cc(C=CC(=O)NO)ccn12` [Compound 26, 3-(2-tert-Butyl-3-{[ethyl-(3-methylsulfanyl-propyl)-amino]-methyl}-imidazo[1,2-a]pyridin-7-yl)-N-hydroxy-acrylamide], the values for the IC50 at HDAC1 enzyme and with Colo205 cells were 90 nM and 600 nM, respectively.

Take `CCN(Cc1c(C(C)(C)C)nc2cc(C=CC(=O)NO)ccn12)CC1CC1` [Compound 27, 3-{2-tert-Butyl-3-[(cyclopropylmethyl-ethyl-amino)-methyl]-imidazo[1,2-a]pyridin-7-yl}-N-hydroxy-acrylamide]: the IC50 turned out to be 330 nM on HDAC1 enzyme and 2100 nM with Colo205 cells.

In the case of `CCN(Cc1c(C(C)(C)C)nc2cc(C=CC(=O)NO)ccn12)CC1CCCCC1` [Compound 28, 3-{2-tert-Butyl-3-[(cyclohexylmethyl-ethyl-amino)-methyl]-imidazo[1,2-a]pyridin-7-yl}-N-hydroxy-acrylamide], the IC50 at HDAC1 enzyme amounted to 190 nM; in the experiment on Colo205 cells, 1100 nM.

In the case of `CCCN(CC)Cc1c(C)nc2cc(C=CC(=O)NO)ccn12` [Compound 30, 3-{3-[(Ethyl-propyl-amino)-methyl]-2-methyl-imidazo[1,2-a]pyridin-7-yl}-N-hydroxy-acrylamide], the IC50 was 540 nM on HDAC1 enzyme and 4600 nM in the experiment with Colo205 cells.

Regarding `CCC(CC)CN(CC)Cc1c(C)nc2cc(C=CC(=O)NO)ccn12` [Compound 31, 3-(3-{[Ethyl-(2-ethyl-butyl)-amino]-methyl}-2-methyl-imidazo[1,2-a]pyridin-7-yl)-N-hydroxy-acrylamide], the IC50 on HDAC1 enzyme is 10 nM; in the experiment with Colo205 cells, 50 nM.

Regarding `CCCN(Cc1c(C(C)(C)C)nc2cc(C=CC(=O)NO)ccn12)C(C)C` [Compound 32, 3-{2-tert-Butyl-3-[(isopropyl-propyl-amino)-methyl]-imidazo[1,2-a]pyridin-7-yl}-N-hydroxy-acrylamide], the IC50 amounted to 300 nM at HDAC1 enzyme and 2500 nM in the experiment on Colo205 cells.

As for `CN(Cc1c(C(C)(C)C)nc2cc(/C=C/C(=O)NO)ccn12)CC(C)(C)C` [Compound 33, 3-(-tert-Butyl-3-{[(2,2-dimethyl-propyl)-methyl-amino]-methyl}-imidazo[1,2-a]pyridin-7-yl)-N-hydroxy-acrylamide], the IC50 at HDAC1 enzyme came out at 780 nM; in the experiment with Colo205 cells it was 6300 nM.

As for `CCCCN(C)Cc1c(C(C)(C)C)nc2cc(C=CC(=O)NO)ccn12` [Compound 34, 3-{2-tert-Butyl-3-[(butyl-methyl-amino)-methyl]-imidazo[1,2-a]pyridin-7-yl}-N-hydroxy-acrylamide], the IC50 on HDAC1 enzyme amounted to 220 nM; with Colo205 cells, 1700 nM.

As to `CCC(CC)CN(C)Cc1c(C(C)(C)C)nc2cc(C=CC(=O)NO)ccn12` [Compound 35, 3-(2-tert-Butyl-3-{[(2-ethyl-butyl)-methyl-amino]-methyl}-imidazo[1,2-a]pyridin-7-yl)-N-hydroxy-acrylamide], the IC50 at HDAC1 enzyme came out at 410 nM; in the experiment with Colo205 cells it was 2300 nM.

Take `CC(C)CCN(C)Cc1c(C(C)(C)C)nc2cc(C=CC(=O)NO)ccn12` [Compound 36, 3-(2-tert-Butyl-3-{[methyl-(3-methyl-butyl)-amino]-methyl}-imidazo[1,2-a]pyridin-7-yl)-N-hydroxy-acrylamide]: the IC50 at HDAC1 enzyme is 350 nM; in the experiment on Colo205 cells it was 900 nM.

Consider `CN(CCC(C)(C)C)Cc1c(C(C)(C)C)nc2cc(C=CC(=O)NO)ccn12` [Compound 37, 3-(2-tert-Butyl-3-{[(3,3-dimethyl-butyl)-methyl-amino]-methyl}-imidazo[1,2-a]pyridin 7-yl)-N-hydroxy-acrylamide], for which the IC50 on HDAC1 enzyme was 270 nM; in the experiment on Colo205 cells, 730 nM.

Consider `CCCN(Cc1c(C)nc2cc(C=CC(=O)NO)ccn12)CC(C)(C)C` [Compound 38, 3-(3-{[(2,2-Dimethyl-propyl)-propyl-amino]-methyl}-2-methyl-imidazo[1,2-a]pyridin-7-yl)-N-hydroxy-acrylamide], for which the results for the IC50 at HDAC1 enzyme and in the experiment on Colo205 cells were 130 nM and 700 nM, respectively.

For `CCN(Cc1c(C)nc2cc(C=CC(=O)NO)ccn12)CC(C)(C)C` [Compound 39, 3-(3-{[(2,2-Dimethyl-propyl)-ethyl-amino]-methyl}-2-methyl-imidazo[1,2-a]pyridin-7-yl)-N-hydroxy-acrylamide], the IC50 was 50 nM at HDAC1 enzyme and 600 nM in the experiment on Colo205 cells.

In the case of `CCCCc1nc2cc(C=CC(=O)NO)ccn2c1CN(CC)CC(C)C` [Compound 40, 3-(2-Butyl-3-[(ethyl-isobutyl-amino)-methyl]-imidazo[1,2-a]pyridin-7-yl}-N-hydroxy-acrylamide], the IC50 at HDAC1 enzyme came out at 90 nM; with Colo205 cells, 570 nM.

With `CCCCc1nc2cc(C=CC(=O)NO)ccn2c1CN(CC)CCC(C)C` [Compound 42, 3-(2-Butyl-3-{[ethyl-(3-methyl-butyl)-amino]-methyl}-imidazo[1,2-a]pyridin-7-yl)-N-hydroxy-acrylamide], the IC50 was 20 nM on HDAC1 enzyme and 90 nM in the experiment with Colo205 cells.

As to `CCCCc1nc2cc(C=CC(=O)NO)ccn2c1CN(CC)CC(C)(C)C` [Compound 43, 3-(2-Butyl-3-{[(2,2-dimethyl-propyl)-ethyl-amino]-methyl}-imidazo[1,2-a]pyridin-7-yl)-N-hydroxy-acrylamide], the IC50 on HDAC1 enzyme turned out to be 160 nM; with Colo205 cells it was 950 nM.

Turning to `CCCCc1nc2cc(C=CC(=O)NO)ccn2c1CN(CC)CC(C)CCC` (centres unmarked) [Compound 44, 3-(2-Butyl-3-{[ethyl-(2-methyl-pentyl)-amino]-methyl}-imidazo[1,2-a]pyridin-7-yl)-N-hydroxy-acrylamide], the IC50 at HDAC1 enzyme was 80 nM; in the experiment on Colo205 cells it was 490 nM.

For the compound `CCCCc1nc2cc(C=CC(=O)NO)ccn2c1CN(CC)CCC(C)(C)C` [Compound 45, 3-(2-Butyl-3-{[(3,3-dimethyl-butyl)-ethyl-amino]-methyl)-imidazo[1,2-a]pyridin-7-yl)-N-hydroxy-acrylamide], the values for the IC50 on HDAC1 enzyme and with Colo205 cells were 30 nM and 140 nM, respectively.

With `CCCCc1nc2cc(C=CC(=O)NO)ccn2c1CN(CC)CC(CC)CC` [Compound 46, 3-(2-Butyl-3-{[ethyl-(2-ethyl-butyl)-amino]-methyl}-imidazo[1,2-a]pyridin-7-yl)-N-hydroxy-acrylamide], the results for the IC50 on HDAC1 enzyme and in the experiment with Colo205 cells were 150 nM and 390 nM, respectively.

Take `CCCCc1nc2cc(C=CC(=O)NO)ccn2c1CN(CC)CCC(C)CC(C)(C)C` (centres unmarked) [Compound 47, 3-(2-Butyl-3-{[ethyl-(3,5,5-trimethyl-hexyl)-amino]-methyl}-imidazo[1,2-a]pyridin-7-yl)-N-hydroxy-acrylamide]: the IC50 was determined as 200 nM on HDAC1 enzyme and 530 nM in the experiment with Colo205 cells.

Turning to `CCCc1nc2cc(C=CC(=O)NO)ccn2c1CN(CC)CCC(C)C` [Compound 51, 3-(3-{[Ethyl-(3-methyl-butyl)-amino]-methyl}-2-propyl-imidazo[1,2-a]pyridin-7-yl)-N-hydroxy-acrylamide], the IC50 was 30 nM on HDAC1 enzyme and 80 nM in the experiment with Colo205 cells.

For the compound `CCCc1nc2cc(C=CC(=O)NO)ccn2c1CN(CC)CCC(C)(C)C` [Compound 52, 3-(3-{[(3,3-Dimethyl-butyl)-ethyl-amino]-methyl}-2-propyl-imidazo[1,2-a]pyridin-7-yl)-N-hydroxy-acrylamide], the figures for the IC50 on HDAC1 enzyme and with Colo205 cells were 20 nM and 70 nM, respectively.

Turning to `CCCCCc1nc2cc(C=CC(=O)NO)ccn2c1CNC(C)(C)C` [Compound 53, 3-[3-(tert-Butylamino-methyl)-2-pentyl-imidazo[1,2-a]pyridin-7-yl]-N-hydroxy-acrylamide], the IC50 came out at 20 nM on HDAC1 enzyme and 70 nM with Colo205 cells.
